We go through three compounds from PubChem BioAssay AID1259407 (Chemical Carcinogenesis Research Information System (CCRIS), 2018).

This data set relates to CCRIS mutagenicity, Ames/micronucleus/aberration tests. In words: CCRIS mutagenicity studies.
The mark [1] stands for this setting: Test System: AMES SALMONELLA TYPHIMURIUM, Strain/Indicator: TA98, Metabolic Activation: NONE, Method: PREINCUBATION
[2] abbreviates: Test System: AMES SALMONELLA TYPHIMURIUM, Strain/Indicator: TA100, Metabolic Activation: NONE, Method: PREINCUBATION
Setting [3] is: Test System: AMES SALMONELLA TYPHIMURIUM, Strain/Indicator: TA1535, Metabolic Activation: NONE, Method: PREINCUBATION
Where [4] appears, read: Test System: AMES SALMONELLA TYPHIMURIUM, Strain/Indicator: TA1537, Metabolic Activation: NONE, Method: PREINCUBATION
Where [5] appears, read: Test System: AMES SALMONELLA TYPHIMURIUM, Strain/Indicator: TA1537, Metabolic Activation: RAT, LIVER, S-9, AROCLOR 1254 (10%), Method: PREINCUBATION

Calls of active or inactive are those of the source. The rule behind the calls is not given here.

Regarding `C[C@]12CC[C@H](OC(=O)Cc3ccc(N(CCCl)CCCl)cc3)C[C@@H]1CC[C@@H]1[C@@H]2CC[C@]2(C)NC(=O)CC[C@@H]12`, the mutagenic call reads like this: (Test System: AMES SALMONELLA TYPHIMURIUM, Strain/Indicator: TA98, Metabolic Activation: NONE, Method: STANDARD PLATE) “inactive; negative”; (Test System: AMES SALMONELLA TYPHIMURIUM, Strain/Indicator: TA98, Metabolic Activation: RAT, LIVER, S-9, AROCLOR 1254, Method: STANDARD PLATE) “inactive; negative”; (Test System: AMES SALMONELLA TYPHIMURIUM, Strain/Indicator: TA100, Metabolic Activation: NONE, Method: STANDARD PLATE) “active; positive”; (Test System: AMES SALMONELLA TYPHIMURIUM, Strain/Indicator: TA100, Metabolic Activation: RAT, LIVER, S-9, AROCLOR 1254, Method: STANDARD PLATE) “active; positive”; (Test System: AMES SALMONELLA TYPHIMURIUM, Strain/Indicator: TA102, Metabolic Activation: NONE, Method: STANDARD PLATE) “active; positive”; (Test System: AMES SALMONELLA TYPHIMURIUM, Strain/Indicator: TA102, Metabolic Activation: RAT, LIVER, S-9, AROCLOR 1254, Method: STANDARD PLATE) “active; positive”. Further, the mutagenic call was “inactive; negative” (Test System: AMES SALMONELLA TYPHIMURIUM, Strain/Indicator: TA104, Metabolic Activation: NONE, Method: STANDARD PLATE); “inactive; negative” (Test System: AMES SALMONELLA TYPHIMURIUM, Strain/Indicator: TA104, Metabolic Activation: RAT, LIVER, S-9, AROCLOR 1254, Method: STANDARD PLATE); “active; positive” (Test System: AMES SALMONELLA TYPHIMURIUM, Strain/Indicator: TA1535, Metabolic Activation: NONE, Method: STANDARD PLATE); “active; positive” (Test System: AMES SALMONELLA TYPHIMURIUM, Strain/Indicator: TA1535, Metabolic Activation: RAT, LIVER, S-9, AROCLOR 1254, Method: STANDARD PLATE).
As for `[O]=[Cd]`, the mutagenic call is “active; positive in group 2” (End Point: In vivo micronucleus, Test System: Peripheral blood lymphocytes, Species: Dog, Strain/Sex: Mongrel/Male, Female, Route: Oral); “inactive; negative” (Test System: AMES SALMONELLA TYPHIMURIUM, Strain/Indicator: TA98, Metabolic Activation: HAMSTER, LIVER, S-9, AROCLOR 1254 (10%), Method: PREINCUBATION); “inactive; negative” under setting [1]; “inactive; negative” (Test System: AMES SALMONELLA TYPHIMURIUM, Strain/Indicator: TA98, Metabolic Activation: RAT, LIVER, S-9, AROCLOR 1254 (10%), Method: PREINCUBATION); “inactive; negative” (Test System: AMES SALMONELLA TYPHIMURIUM, Strain/Indicator: TA100, Metabolic Activation: HAMSTER, LIVER, S-9, AROCLOR 1254 (10%), Method: PREINCUBATION); “inactive; negative” under setting [2]. The mutagenic call (Test System: AMES SALMONELLA TYPHIMURIUM, Strain/Indicator: TA100, Metabolic Activation: RAT, LIVER, S-9, AROCLOR 1254 (10%), Method: PREINCUBATION) is “inactive; negative”; the mutagenic call (Test System: AMES SALMONELLA TYPHIMURIUM, Strain/Indicator: TA1535, Metabolic Activation: HAMSTER, LIVER, S-9, AROCLOR 1254 (10%), Method: PREINCUBATION) is “inactive; negative”; the mutagenic call under setting [3] was “inactive; negative”; the mutagenic call (Test System: AMES SALMONELLA TYPHIMURIUM, Strain/Indicator: TA1535, Metabolic Activation: RAT, LIVER, S-9, AROCLOR 1254 (10%), Method: PREINCUBATION) was “inactive; negative”; the mutagenic call (Test System: AMES SALMONELLA TYPHIMURIUM, Strain/Indicator: TA1537, Metabolic Activation: HAMSTER, LIVER, S-9, AROCLOR 1254 (10%), Method: PREINCUBATION) was “inactive; negative”; the mutagenic call under setting [4] was “inactive; negative”. Also, under setting [5], the mutagenic call was “inactive; negative”.
Take `Cc1ccccc1C=O`: the mutagenic call was “inactive; negative” (Test System: AMES SALMONELLA TYPHIMURIUM, Strain/Indicator: TA97, Metabolic Activation: HAMSTER, LIVER, S-9, AROCLOR 1254 (10 OR 30%), Method: PREINCUBATION); “inactive; negative” (Test System: AMES SALMONELLA TYPHIMURIUM, Strain/Indicator: TA97, Metabolic Activation: NONE, Method: PREINCUBATION); “inactive; negative” (Test System: AMES SALMONELLA TYPHIMURIUM, Strain/Indicator: TA97, Metabolic Activation: RAT, LIVER, S-9, AROCLOR 1254 (10 OR 30%), Method: PREINCUBATION); “inactive; negative” (Test System: AMES SALMONELLA TYPHIMURIUM, Strain/Indicator: TA98, Metabolic Activation: HAMSTER, LIVER, S-9, AROCLOR 1254 (10 OR 30%), Method: PREINCUBATION); “inactive; negative” under setting [1]; “inactive; negative” (Test System: AMES SALMONELLA TYPHIMURIUM, Strain/Indicator: TA98, Metabolic Activation: RAT, LIVER, S-9, AROCLOR 1254 (10 OR 30%), Method: PREINCUBATION). The mutagenic call is, setting by setting: (Test System: AMES SALMONELLA TYPHIMURIUM, Strain/Indicator: TA100, Metabolic Activation: HAMSTER, LIVER, S-9, AROCLOR 1254 (10 OR 30%), Method: PREINCUBATION) “inactive; negative”; under setting [2], “inactive; negative”; (Test System: AMES SALMONELLA TYPHIMURIUM, Strain/Indicator: TA100, Metabolic Activation: RAT, LIVER, S-9, AROCLOR 1254 (10 OR 30%), Method: PREINCUBATION) “inactive; negative”; (Test System: AMES SALMONELLA TYPHIMURIUM, Strain/Indicator: TA1535, Metabolic Activation: HAMSTER, LIVER, S-9, AROCLOR 1254 (10 OR 30%), Method: PREINCUBATION) “inactive; negative”; under setting [3], “inactive; negative”; (Test System: AMES SALMONELLA TYPHIMURIUM, Strain/Indicator: TA1535, Metabolic Activation: RAT, LIVER, S-9, AROCLOR 1254 (10 OR 30%), Method: PREINCUBATION) “inactive; negative”. Further, the mutagenic call (Test System: AMES SALMONELLA TYPHIMURIUM, Strain/Indicator: TA1537, Metabolic Activation: HAMSTER, LIVER, S-9, AROCLOR 1254 (10 OR 30%), Method: PREINCUBATION) is “inactive; negative”; the mutagenic call under setting [4] is “inactive; negative”; the mutagenic call under setting [5] was “inactive; negative”.
